# Assay results published in PubChem BioAssay (NCI).
# “And” between values parts separate entries of the source, which are not always exact repeats. Identical values can stand only once.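 The compound was tested at five concentrations on cells cultured in 96-well plates, with a 48-hour exposure period. GI50 marks 50% less growth. TGI marks complete inhibition of growth.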
# How the values were obtained:
# Assay in all cases: NCI anticancer screen, dose series, 48 h
# NCI-H226 lung = test system: NCI-H226 lung
# MDA-MB-435 = test system: MDA-MB-435
# NCI-H23 lung = test system: NCI-H23 lung
# RXF 393 renal = test system: RXF 393 renal
# UACC-257 melanoma = test system: UACC-257 melanoma
# HT29 colon = test system: HT29 colon
# SK-OV-3 ovarian = test system: SK-OV-3 ovarian
# SN12C renal = test system: SN12C renal
# LOX IMVI melanoma = test system: LOX IMVI melanoma
# CAKI-1 renal = test system: CAKI-1 renal
Structure (SMILES),GI50 (NCI-H226 lung),TGI (NCI-H226 lung),GI50 (MDA-MB-435),TGI (MDA-MB-435),GI50 (NCI-H23 lung),TGI (NCI-H23 lung),GI50 (RXF 393 renal),TGI (RXF 393 renal),GI50 (UACC-257 melanoma),TGI (UACC-257 melanoma),GI50 (HT29 colon),TGI (HT29 colon),GI50 (SK-OV-3 ovarian),TGI (SK-OV-3 ovarian),GI50 (SN12C renal),TGI (SN12C renal),GI50 (LOX IMVI melanoma),TGI (LOX IMVI melanoma),GI50 (CAKI-1 renal),TGI (CAKI-1 renal)
COc1ccc(-c2nn3ncccc3c2-c2ccnc(Nc3ccc(F)c(F)c3)n2)cc1,13.9 µM,> 25 µM,7.39 µM,> 25 µM,11.5 µM,> 25 µM,7.45 µM,> 25 µM,12 µM,> 25 µM,5.43 µM,> 25 µM,10.5 µM,> 25 µM,10.4 µM,> 25 µM,7.42 µM,> 25 µM,7.65 µM,> 23.4 µM
CCOc1ccc2nc3cc(N)ccc3c(N)c2c1,6.49 µM and 2.55 µM,24.2 µM and 13.4 µM,10.6 µM and 7.74 µM,24.3 µM and 22.4 µM,2.2 µM and 2.31 µM,13.2 µM and 11.3 µM,4.97 µM and 2.38 µM,20.3 µM and 14.6 µM,11 µM and 5.67 µM,28.6 µM and 21 µM,5.77 µM and 5.22 µM,19.5 µM and 17.9 µM,2.67 µM and 3.65 µM,14.2 µM and 15.6 µM,0.661 µM and 0.298 µM,6.45 µM and 2.1 µM,4.53 µM and 2.95 µM,20 µM and 12.4 µM,36.1 µM and 22.8 µM,> 100 µM and 76.3 µM
Clc1ccc2c(NC3CCC(NC4CCCCC4)CC3)ccnc2c1 (stereo unspecified),12.8 µM,46.5 µM,2.11 µM,5.51 µM,7.74 µM,35.9 µM,3.61 µM,16.6 µM,2.18 µM,4.17 µM,1.57 µM,7.88 µM,15.9 µM,46.2 µM,14.7 µM,68.3 µM,1.75 µM,4.29 µM,1.81 µM,6.63 µM
CC(C)CC(NC(=O)C(O)C(N)Cc1ccccc1)C(=O)O (stereo unspecified),,> 100 µM,,> 100 µM,,> 100 µM,,> 100 µM,,> 100 µM,,> 100 µM,,> 100 µM,,> 100 µM,,> 100 µM,,> 100 µM
COc1cc(-c2csc(NC(=O)Nc3ccc(Cl)cc3)n2)cc(OC)c1OC,3.22 µM,10.7 µM,2.17 µM,5.88 µM,2.54 µM,10.9 µM,3.91 µM,13.9 µM,2.48 µM,6.03 µM,3.01 µM,12.4 µM,3 µM,8.91 µM,3.18 µM,13.7 µM,2.59 µM,7.59 µM,2.91 µM,11.1 µM
CN1CCN(c2cc(F)c(NC3=C(Cl)C(=O)c4ncccc4C3=O)c(F)c2)CC1,15.7 µM,39.5 µM,1.66 µM,3.2 µM,1.4 µM,3.01 µM,1.64 µM,3.1 µM,1.43 µM,2.78 µM,2 µM,4.04 µM,14.7 µM,28.2 µM,1.7 µM,3.29 µM,1.35 µM,2.84 µM,1.27 µM,2.52 µM
CCCCCOC(=O)c1c(C)[nH]c(/C=C2\N=C(c3ccc[nH]3)C=C2OC)c1C,0.222 µM,2.13 µM,0.0348 µM,0.734 µM,0.057 µM,1.47 µM,0.0664 µM,0.9 µM,0.0953 µM,1.28 µM,0.0154 µM,1.34 µM,0.209 µM,2.38 µM,0.0482 µM,1.73 µM,0.0115 µM,0.025 µM,0.0335 µM,0.335 µM
COc1cccc(C2CC(C)(O)Oc3cc4c(cc32)OCO4)c1 (stereo unspecified),,53 µM,,15.2 µM,,> 100 µM,,> 100 µM,,> 100 µM,,28.8 µM,,67.2 µM,,> 100 µM,,> 100 µM,,> 100 µM
COc1cc2c(cc1OCCCCCOc1ccc(-c3nc4ccccc4s3)cc1)N=C[C@@H]1CCCN1C2=O,3.02 µM,10.4 µM,10.5 µM,69.2 µM,2.6 µM,10.5 µM,1.46 µM,5.43 µM,6.61 µM,21.2 µM,1.58 µM,18 µM,8.97 µM,> 25.6 µM,2.95 µM,18.9 µM,0.983 µM,4.37 µM,2.36 µM,> 62 µM
COc1ccc2c(c1[N+](=O)[O-])CC[C@@H]1[C@@H]2CC[C@]2(C)C(=O)CC[C@@H]12,494 µM,,> 1000 µM,> 1000 µM,679 µM,> 1000 µM,432 µM,> 927 µM,> 931 µM,> 1000 µM,> 1000 µM,> 1000 µM,413 µM,,983 µM,> 1000 µM,434 µM,> 1000 µM,660 µM,> 1000 µM
O=C(Nc1ccccc1/C=C/c1n[nH]c2ccccc12)c1ccccc1,1.09 µM,11.5 µM,1.97 µM,13.5 µM,2.2 µM,17.6 µM,4.58 µM,17.3 µM,2.36 µM,16.5 µM,1.78 µM,7 µM,10.9 µM,22.8 µM,2 µM,5.4 µM,2.48 µM,11.4 µM,2.98 µM,16.9 µM
C[C@]12CC[C@H]3[C@@H](CCC4=CC(=O)CC[C@@]43C)[C@]1(O)CC[C@]2(O)C(=O)CO,,> 100 µM,,> 100 µM,,> 100 µM,,> 100 µM,,> 100 µM,,> 100 µM,,> 100 µM,,> 100 µM,,> 100 µM,,> 100 µM
Clc1ccc(NCNC2Nc3ccccc3N2)cc1Cl,,> 100 µM,,93.2 µM,,> 100 µM,,> 100 µM,,> 100 µM,,64 µM,,> 100 µM,,> 100 µM,,> 100 µM,,> 100 µM
Oc1ccc(CCNc2nc3ccccc3c3[nH]c4ccccc4c23)cc1O,11 µM,24.3 µM,1.7 µM,3.26 µM,6.87 µM,22.7 µM,1.91 µM,3.59 µM,25.5 µM,40.2 µM,3.2 µM,11.1 µM,10.7 µM,22.6 µM,1.94 µM,7.29 µM,1.77 µM,3.28 µM,11 µM,22.9 µM
CCN(CC)CCN1C(=O)C2C3C(C)=CC(OC(C)=O)(CC3C)C2C1=O (stereo unspecified),> 100 µM,> 100 µM,> 100 µM,> 100 µM,> 100 µM,> 100 µM,> 100 µM,> 100 µM,> 100 µM,> 100 µM,> 100 µM,> 100 µM,> 100 µM,> 100 µM,> 100 µM,> 100 µM,> 100 µM,> 100 µM,> 100 µM,> 100 µM
CN(C)CCN1C(=O)c2cccc3cc(N)cc(c23)C1=O,1.51 µM,5.34 µM and 8.51 µM,3.86 µM,15.7 µM and 9.98 µM,3.43 µM,22.7 µM and 14.1 µM,,18.1 µM and 10.6 µM,2.55 µM,9.51 µM and 12.8 µM,2.75 µM,12 µM and 14.1 µM,,38.4 µM and 17.4 µM,2.83 µM,> 56.9 µM and 16.3 µM,2.18 µM,> 31.3 µM and 7.29 µM,1.77 µM and 1.11 µM,11.1 µM and 7.59 µM
Cc1ccc(NC(=O)c2ccoc2)cc1-c1ccc(C(=O)NCC2CC2)cc1,> 19.5 µM,> 25 µM,> 25 µM,> 25 µM,> 25 µM,> 25 µM,> 25 µM,> 25 µM,> 17.7 µM,> 25 µM,> 25 µM,> 25 µM,> 25 µM,> 25 µM,> 25 µM,> 25 µM,> 25 µM,> 25 µM,> 25 µM,> 25 µM
COCCn1c(Nc2ccc(C(=O)NO)cc2)nc2ccccc21,13.7 µM,36.9 µM,2.89 µM,11.4 µM,4.43 µM,16.3 µM,0.846 µM,3.91 µM,1.77 µM,14.1 µM,2.97 µM,> 100 µM,3.45 µM,20.2 µM,7.28 µM,47.4 µM,5.9 µM,19 µM,1.37 µM,6.24 µM
CC(C)(C)CNCCO,,> 100 µM,,> 100 µM,,> 100 µM,,> 100 µM,,> 100 µM,,> 100 µM,,> 100 µM,,> 100 µM,,> 100 µM,,> 100 µM
